Patent US20240082285A1 (priority 2022, published 2024)

Tests used:
[1] = test system: VP6 gene; assay: Gene expression of structural protein VP6 in RV-infected MA104 cells, real-time quantitative PCR; assay type: cell-based, Rotavirus; details: 1 μM, 5 M and 10 μM, compared with RV group, most significant at 5 μM
Excerpt: The Experimental Method is as Follows: • (1) Extraction and quantification of total RNA; • (2) Primer sequence design; • (3) Reverse transcription reaction; • (4) SYBR Green I fluorescent labeling is used for real-time quantitative PCR detection of expression of VP6 gene.

[2] = test system: Wa strain RV; assay: Effect against RV synthesis (drug after virus), CCK-8 viral inhibition rate; assay type: cell-based, Rotavirus; details: 48 h; for effect of synthesis inhibition on RV: MA104-2 cells, 100 TCID50 virus
Procedure: 100 TCID50 virus solution (the virus acts with 10 μg/mL pancreatin for 30 min) is added to the 96-well culture plate of the MA104-2 cells that grow to the single layer, and each well contains 100 μL. The cells have been washed twice with PBS. Normal cell control is set, and added with an equal volume of DMEM. Incubation is conducted at 37° C. and 5% CO2 for 2 h. Then, the virus solution is sucked out and added into different concentrations of drug solution and ribavirin respectively, and each well contains 100 μL. Virus control is set. Only the cell maintenance solution is added, and each well contains 100 μL. Incubation is conducted at 37° C. and 5% CO2 for continuous observation. After continuous culture for 48 h, CCK-8 kit is used for detection. 1/10 volume of CCK-8 solution is added to each well, and incubated in the incubator. After 90 min, the absorbance is detected and recorded at 450 nm wavelength. The viral inhibition rate of the drug is calculated, and the experiment is repeated for 3 times. The formula of the viral inhibition rate is:
(§1) {(Adrug group−Avirus group)/(Anormal group−Avirus group)×100%}.

[3] = test system: Wa strain RV; assay: Effect against RV adsorption (drug before virus), CCK-8 viral inhibition rate; assay type: cell-based, Rotavirus; details: MA104 cells, 1 μM, 5 μM and 10 μM, compared with ribavirin group
Procedure: The 96-well culture plate of the MA104 cells that grow to the single layer is added with the drug solution. Each drug solution is repeated with 6 wells, and each well contains 100 μL. An equal volume of ribavirin is added to the positive control group, and only an equal volume of DMEM culture solution (without serum) is added to the normal cell control group and the viral control group. Incubation is conducted at 37° C. and 5% CO2 for 2 h. The drug solution is sucked out. Except the normal cell control group, 100 TCID50 virus is added (the virus acts with 10 μg/mL pancreatin at 37° C. for 30 min), and each well contains 100 μL. Incubation is conducted at 37° C. and 5% CO2 for 2 h. The virus is sucked out, the cell maintenance solution is added, and each well contains 200 μL. Incubation is conducted at 37° C. and 5% CO2 for continuous observation. After culture for 48 h, CCK-8 kit is used for detection. 1/10 volume of CCK-8 solution is added to each well, and incubated in the incubator. After 90 min, the absorbance is detected and recorded at 450 nm wavelength. The experiment is repeated for 3 times. The formula of the viral inhibition rate is:
as §1

[4] = test system: Wa strain RV; assay: Direct killing effect on RV (drug mixed with virus), CCK-8 viral inhibition rate; assay type: cell-based, Rotavirus; details: MA104 cells, 100 TCID50 virus, 48 h; inhibition rate lower than ribavirin group
Procedure: The drug is mixed with 100 TCID50 virus solution (the virus acts with 10 μg/mL pancreatin for 30 min) at an equal volume for 2 h. After the cells are washed twice with PBS, the cells are added to the 96-well culture plate of the MA104 cells that grow to the single layer. In the positive control group, the same operation as above is conducted for ribavirin and RV, and only an equal volume of DMEM (without serum) is added to the normal cell control group and the viral control group. Incubation is conducted at 37° C. and 5% CO2 for 2 h. Then, the mixed solution is sucked out, the cell maintenance solution is added, and each well contains 100 μL. Incubation is conducted at 37° C. and 5% CO2 for continuous observation. After culture for 48 h, CCK-8 kit is used for detection. 1/10 volume of CCK-8 solution is added to each well, and incubated in the incubator. After 90 min, the absorbance is detected and recorded at 450 nm wavelength. The viral inhibition rate of the drug is calculated, and the experiment is repeated for 3 times. The formula of the viral inhibition rate is:
as §1

[5] = test system: MA104 cells; assay: Toxicity of Chebulinic acid to MA104 cells by CCK8 method; assay type: cell-based; details: 48 h
Procedure: According to the common drug concentration range of Chebulinic acid, the cytotoxicity pre-experiment is performed between 1 μM and 25 μM in this experiment. The MA104 cells at the logarithmic growth stage are observed under a microscope. The cellular morphology is uniform and full with clear edges, and when the number reaches 80%, digestion, centrifugation and re-suspension are conducted. After further dilution of the suspension, […] is taken on a blood cell counting plate to count and calculate the required cell volume. Then, the cells are laid in a 96-well plate, 100 µL of cell suspension is added to each well, and the cell density is 8×10^4 cells/mL. When the cells adhere to the wall to form a single layer, the drug group is administered, and the normal group is added with an equal volume of DMEM (without serum). After incubation for 48 h, the cytotoxicity of Chebulinic acid is detected by CCK8 reagent. 1/10 volume of CCK8 solution is added to each well and incubated in an incubator. After 90 min, the absorbance is detected and recorded under the condition of oscillation for 10 s and at 450 nm wavelength. The formula for the relative survival rate of the cells is:
{(Axpenmentai group−Ablank)/(Acontrol group−Ablaimk)×100%}.

[6] = Rotavirus, read-out: anti-RV inhibition rate (synthesis)

SMILES	VP6 expression [1]	effect of synthesis inhibition on RV [2]	inhibition at 1 µM [2, 6] [%]	inhibition at 5 µM [2, 6] [%]	inhibition at 10 µM [2, 6] [%]	anti-RV adsorption effect [3]	direct killing effect on RV [4]	drug toxicity to the cells ([5]; 1 μM to 10 μM)	average survival rate ([5]; Chebulinic acid 1 μM to 10 μM)
O=C(O)C[C@@H]1C(=O)O[C@H]2[C@H](OC(=O)c3cc(O)c(O)c(O)c3)[C@@H](OC(=O)c3cc(O)c(O)c4c3[C@H]1[C@H](O)C(=O)O4)[C@H](OC(=O)c1cc(O)c(O)c(O)c1)O[C@@H]2COC(=O)c1cc(O)c(O)c(O)c1 [Chebulinic acid]	significantly decreased	obvious effect of synthesis inhibition	80	75.3	61.9	no obvious anti-RV adsorption effect	no obvious direct killing effect	no drug toxicity	above 95%
NC(=O)c1ncn([C@@H]2O[C@H](CO)[C@@H](O)[C@H]2O)n1 [ribavirin, reference compound]		obvious effect of synthesis inhibition							
